Laboratory results published in patent publication US20220088002A1, “METHOD AGAINST CORONAVIRUS INFECTION WITH QUINOLINE COMPOUND” (CHANG GUNG UNIVERSITY, priority 2020, published 2022).

Columns and labels:
[1] = tested on: HcoV-229E; experiment: Effect against HCoV-229E in Vero E6 cells (MTT cell viability); assay type: cell-based, human coronavirus 229E
Protocol: Vero E6 cells were divided into 6 groups, including one normal control group, one pathological control group, and four experimental groups (i.e., experimental groups 1 to 4). Each group of the Vero E6 cells was incubated in a respective well of a 96-well culture plate containing 100 μL of E2 medium at 2×10^4 cells/well, followed by cultivation in an incubator (37° C., 5% CO2) for 24 hours. Afterwards, the culture medium in each well was removed, and the cells of the experimental groups 1 to 4 were pretreated with 6-bromo-2-[1-(2,5-dimethylphenyl)-5-methyl-1H-pyrazol-4-yl]-quinoline-4-carboxylic acid (i.e., HP520-3) (Cat. No. Molport-020-176-277, Molport Inc.) respectively at concentrations of 39 nM, 78 nM, 156 nM, and 312 nM, followed by adding 150 μL of the HcoV-229E solution prepared in section 2 of General Experimental Materials. […]
Each group was cultivated in an incubator (37° C., 5% CO2) for 96 hours. […] After cultivation in an incubator (37° C., 5% CO2) for 2 hours, the respective resultant cell culture was added with 150 μL of dimethyl sulfoxide (DMSO), followed by subjecting the mixture thus obtained to determination of absorbance at a wavelength of 590 nm (OD590) by an ELISA reader.
The cell viability rate (%) was calculated using the following Equation (I): […]

[2] = tested on: SARS-CoV-2; assay type: cell-based; conditions: Vero E6 cells pretreated at 0.3125 μM, 1.25 μM, and 5 μM, m.o.i. 0.01; normalized against GAPDH; versus pathological control group
[3] = tested on: SARS-CoV-2; experiment: Viral plaque reduction assay; assay type: cell-based; conditions: SARS-CoV-2-infected Vero E6 cells (m.o.i. 0.01), 1 μM and 10 μM, 72 hours; versus pathological control group

## Cc1ccc(C)c(-n2ncc(-c3cc(C(=O)O)c4cc(Br)ccc4n3)c2C)c1 [HP520-3, 6-bromo-2-[1-(2,5-dimethylphenyl)-5-methyl-1H-pyrazol-4-yl]-quinoline-4-carboxylic acid]
[1]; HcoV-229E-infected Vero E6 cells pretreated at 39 nM, 78 nM, 156 nM, and 312 nM, versus pathological control group
  cell viability rate: significantly higher than that determined in the pathological control group
[1]; Human coronavirus 229E, Vero C1008, HcoV-229E-infected Vero E6 cells, 96 hours, MTT, n=3, mean±SD
  EC50: 141 ± 15.4 nM
[2]
  relative RNA expression level of E gene of SARS-CoV-2: significantly lower than that of the pathological control group
[3]
  number of viral plaques: lower than that determined in the pathological control group
